Data on three compounds can be found in paper PMC6681416, “Novel Derivatives of Deoxycholic Acid Bearing Linear Aliphatic Diamine and Aminoalcohol Moieties and their Cyclic Analogs at the C3 Position: Synthesis and Evaluation of Their In Vitro Antitumor Potential” (Molecules, 2019).

The test system of one series is RAW264.7 macrophages. Put plainly: MTT cytotoxicity assay, RAW264.7. The settings on record: for IC50: Mus musculus, RAW264.7, MTT, 24 h, read-out: IC50 RAW264.7 (macrophage); for Selectivity index RAW264: ratio IC50 hFF3 / IC50 RAW264.7. It counts as cell-based, murine. The text has this: (§1) According to our previous data and data published by other research groups, chemical transformations of bile acids can greatly improve their antitumor potential. Thus, as the first step of evaluation of the biological activities of our novel DCA derivatives we assessed their effects on tumor cell viability. The cytotoxicity of the compounds was investigated with respect to a panel of cultured cell lines, including human duodenal HuTu-80, hepatocellular HepG2, cervical KB-3-1 and lung A549 carcinomas as well as murine macrophage RAW264.7 and non-transformed human fibroblasts hFF3 by MTT assay.
(§2) Human duodenal carcinoma HuTu-80 cells, human hepatocellular carcinoma HepG2 cells, human cervical carcinoma KB-3-1 cells, human lung carcinoma A549 cells were obtained from the Russian Cell Culture Collection (Institute of Cytology, RAS, St. Petersburg, Russia). Non-transformed human fibroblasts hFF3 were kindly provided by Dr. Olga Koval (Institute of Chemical Biology and Fundamental Medicine, SB RAS, Novosibirsk, Russia). RAW264.7 macrophages were kindly provided by Prof. Dr. Dmitry Kuprash (Engelhardt Institute of Molecular Biology, RAS, Moscow, Russia). The cells were cultured in DMEM (Sigma-Aldrich Inc., St. Louis, MO, USA) supplemented with 10% (v/v) heat-inactivated fetal bovine serum (FBS) (BioloT, St. Petersburg, Russia), 100 U/mL penicillin (ICN Biomedicals Inc., Costa Mesa, CA, USA), 100 µg/mL streptomycin and 0.25 µg/mL amphotericin; additionally, in the case of RAW264.7 cells, concentration of glucose in the medium was increased up to 4.5 mg/mL. The cells were incubated at 37 °C in 5% CO2 and 95% air (hereafter referred to as standard conditions). DCA derivatives were dissolved in DMSO to yield stock solutions of 10 mmol/L and stored at −20 °C prior to use.
(§3) Cells were seeded in triplicate in 96-well plates at a density of 5 × 10^3 (HuTu-80, HepG2, KB-3-1, hFF3), 10^4 (A549) or 5 × 10^4 (RAW264.7) cells per well. Cells were incubated under standard conditions for 24 h and then they were treated with varying doses of investigated derivatives for subsequent 24 h. Then 10 µL of MTT solution (5 mg/mL) were added to each wells and cells were incubated for an additional 2 h under standard conditions. The crystals of formazan forming within live cells were solubilized with DMSO and the absorbance was measured in a Multiscan RC plate reader (Thermo LabSystems, Helsinki, Finland) at a test and reference wavelengths of 570 nm and 620 nm, respectively. […] To perform SAR analysis, hierarchical clustering of compounds based on their IC50 values was fulfilled with Euclidean distance by using the Morpheus tool (https://software.broadinstitute.org/morpheus/), a platform designed for visualization and analysis of data in a matrix format. Heatmap, containing compounds’ SI values, were constructed by using the Excel 2010 software (Microsoft, Redmond, WA, USA). In order to reveal whether ROS participate in the induction of cell death by compound 9, HuTu-80 cells cultured in 96-well plate were pretreated by NAC at 2 mM for 1 h. Thereafter, the medium was replaced by fresh medium with compound 9 at 8 µM and the cells were incubated with subsequent 24 h under standard conditions. After this time period, the curves of cytotoxicity of compound 9 in the presence or absence of NAC were compared.
In general terms: Tetrazolium assays rely on reduction of a dye to a coloured formazan, in cell work by metabolically active cells.

Series [1] relates to A549 cells. Details: method as in PMID 28688958, PMID 26037611, PMID 28887170. The settings on record: MTT, 24 h; values marked by asterisk; ref [21],[22],[23]; read-out: IC50 A549 (lung); cited from earlier work.
The test system of series [2] is KB-3-1 cells. Put plainly: MTT cytotoxicity assay, KB-3-1. It counts as cell-based, human. As to conditions: for Selectivity index KB-3-1: ratio IC50 hFF3 / IC50 KB-3-1; for IC50: Homo sapiens, KB 3-1, MTT, 24 h, read-out: IC50 KB3-1 (cervix).
Description: as §1, §2, §3

Series [3] concerns A549 cells. Put plainly: MTT cytotoxicity assay, A549. The settings on record: for Selectivity index A549: ratio IC50 hFF3 / IC50 A549; for IC50: Homo sapiens, A549, MTT, 24 h, read-out: IC50 A549 (lung). It counts as cell-based, human.
Description: as §1, §2, §3

Series [4] has as its system HepG2 cells. Details: method as in PMID 28688958, PMID 26037611, PMID 28887170. As to conditions: MTT, 24 h; values marked by asterisk; ref [21],[22],[23]; read-out: IC50 HepG2 (liver); cited from earlier work.
Series [5] has as its system non-transformed human fibroblasts hFF3. Details: method as in PMID 28688958, PMID 26037611, PMID 28887170. As to conditions: MTT, 24 h; values marked by asterisk; ref [21],[22],[23]; read-out: IC50 hFF3 (fibroblast); cited from earlier work.
In series [6] the test system is NO synthesis by IFNγ-activated RAW264.7 cells. Kind of series: Inhibition of NO production by stimulated macrophages (Griess). It counts as cell-based, murine. As to conditions: Mus musculus, RAW264.7, 24 h, read-out: IC50NO. On the procedure:
RAW264.7 cells were seeded in triplicate in 96-well plates at a density of 5 × 10^4 cells/well and incubated under standard conditions for 24 h. The cells were treated with 20 ng/mL of murine recombinant IFNγ (GIBCO, Gaithersburg, MD, USA), with or without (control) compounds at various concentrations for 24 h. The level of NO production was evaluated by determining the nitrite concentration in culture medium with a Griess Reagent System (Promega, Madison, WI, USA). The IC50^NO value was calculated as the derivative concentration required to decrease NO production to 50% of the non-treated control.
Background: The Griess reaction detects nitrite, a stable product of nitric oxide.

For series [7], the system named is HepG2 cells. Kind of series: MTT cytotoxicity assay, HepG2. It counts as cell-based, human. As to conditions: for Selectivity index HepG-2: ratio IC50 hFF3 / IC50 HepG2; for IC50: Homo sapiens, HepG2, MTT, 24 h, read-out: IC50 HepG2 (liver).
Description: as §1, §2, §3

The subject of series [8] is HuTu-80 cells. Details: method as in PMID 28688958, PMID 26037611, PMID 28887170. The settings on record: MTT, 24 h; values marked by asterisk; ref [21],[22],[23]; read-out: IC50 HuTu-80 (duodenum); cited from earlier work.
Series [9] has as its system panel of cultured cell lines (HuTu-80, HepG2, KB-3-1, A549, RAW264.7, hFF3). Details: method as in PMID 28688958, PMID 26037611, PMID 28887170. As to conditions: MTT, 24 h; summary of Table 1 values marked by asterisk; ref [21],[22],[23]; read-out: IC50, range or lowest value over tested cell lines; cited from earlier work.
The test system of series [10] is HuTu-80 cells. Kind of series: cells. In kind it is cell-based. As to conditions: for Selectivity index HuTu-80: ratio IC50 hFF3 / IC50 HuTu-80; for IC50: Homo sapiens, HuTu80, MTT, 24 h, read-out: IC50 HuTu-80 (duodenum).
Description: as §1, §2, §3

Series [11] concerns KB-3-1 cells. Details: method as in PMID 28688958, PMID 26037611, PMID 28887170. As to conditions: MTT, 24 h; values marked by asterisk; ref [21],[22],[23]; read-out: IC50 KB3-1 (cervix); cited from earlier work.
Series [12] has as its system non-transformed human fibroblasts hFF3. Put plainly: MTT cytotoxicity assay, hFF3. In kind it is cell-based. As to conditions: HFF-3, 24 h, read-out: IC50 hFF3 (fibroblast).
Description: as §1
as §2, with “DCA derivatives were dissolved in DMSO to yield stock solutions of 10 mmol/L and stored at −20 °C prior to use.” left out
Cells were seeded in triplicate in 96-well plates at a density of 5 × 10^3 (HuTu-80, HepG2, KB-3-1, hFF3), 10^4 (A549) or 5 × 10^4 (RAW264.7) cells per well. […] The crystals of formazan forming within live cells were solubilized with DMSO and the absorbance was measured in a Multiscan RC plate reader (Thermo LabSystems, Helsinki, Finland) at a test and reference wavelengths of 570 nm and 620 nm, respectively. […]

Series [13] deals with panel of cultured cell lines (HuTu-80, HepG2, KB-3-1, A549, RAW264.7, hFF3). Kind of series: MTT cytotoxicity, range over the panel of tested cell lines. In kind it is cell-based. As to conditions: 24 h, summary of Table 1 (for 2–10 partly from ref [21]).
Description: as §1
Cells were seeded in triplicate in 96-well plates at a density of 5 × 10^3 (HuTu-80, HepG2, KB-3-1, hFF3), 10^4 (A549) or 5 × 10^4 (RAW264.7) cells per well. Cells were incubated under standard conditions for 24 h and then they were treated with varying doses of investigated derivatives for subsequent 24 h. Then 10 µL of MTT solution (5 mg/mL) were added to each wells and cells were incubated for an additional 2 h under standard conditions. The crystals of formazan forming within live cells were solubilized with DMSO and the absorbance was measured in a Multiscan RC plate reader (Thermo LabSystems, Helsinki, Finland) at a test and reference wavelengths of 570 nm and 620 nm, respectively. […]

A short description of series [14]: Solubility in cell culture medium. As to conditions: maximal tested concentration limited by 50 µM. In kind it is physicochemical.

Where two headings read alike, the source gives them in different places.

Turning to `CCN(CC)CCCNC[C@]1(O)CC[C@]2(C)C3CC(=O)[C@@]4(C)C(CC[C@@H]4[C@H](C)CCC(=O)OC)[C@@H]3CC[C@@H]2C1` (stereo partly drawn) [Compound 6], the IC50 in the series with RAW264.7 macrophages was 6.7 ± 0.5 µM; with A549 cells [1] it was 6.8 ± 0.3 µM; with HepG2 cells [4], 3.7 ± 0.17 µM; in series [5], 6.2 ± 0.4 µM; in [6], more than 10 µM; with HuTu-80 cells [8] it was 1 ± 0.6 µM. The figures for the IC50 (in series [9]; in the series on KB-3-1 cells [11]) were 1 to 6.8 µM and 6.7 ± 0.6 µM, respectively. Also, in the series with RAW264.7 macrophages, the “Selectivity index RAW264” value is 0.9. Besides, the “Selectivity index KB-3-1” value in the series with KB-3-1 cells [2] is 0.9. The “Selectivity index A549” value in the series with A549 cells [3] was 0.9. Moreover, the “Selectivity index HepG-2” value in the series with HepG2 cells [7] is 1.7. Also, the “Selectivity index HuTu-80” value in the series with HuTu-80 cells [10] amounted to 6.2.

Take `COC(=O)CC[C@@H](C)[C@H]1CC[C@H]2[C@@H]3CC[C@@H]4CC(O)(CNCCO)CC[C@]4(C)[C@H]3CC(=O)[C@]12C` (stereo partly drawn) [Compound 8, Methyl 3-hydroxy-3-((2-hydroxyethylamino)methyl)-12-oxo-5β-cholan-24-oate]: the IC50 in the series on RAW264.7 macrophages is 23.4 ± 1.2 µM; in [12], 34.8 ± 1 µM; in the series on KB-3-1 cells [2] it was 17.7 ± 2.8 µM; in [13], 4.4 to 34.8 µM; in the series on A549 cells [3], 29.6 ± 2.5 µM; in series [6], more than 10 µM. The IC50 in the series with HepG2 cells [7] is 5.8 ± 1.3 µM; in the series with HuTu-80 cells [10], 4.4 ± 0.34 µM. Moreover, the “Selectivity index RAW264” value in the series with RAW264.7 macrophages was 1.5. The “Selectivity index KB-3-1” value in the series on KB-3-1 cells [2] turned out to be 1.9. Further, the “Selectivity index A549” value in the series on A549 cells [3] is recorded as 1.2. Also, in the series on HepG2 cells [7], the “Selectivity index HepG-2” value is given as 6. In addition, the “Selectivity index HuTu-80” value in the series on HuTu-80 cells [10] was determined as 7.9.

`COC(=O)CC[C@@H](C)[C@H]1CC[C@H]2[C@@H]3CC[C@@H]4CC(O)(CN5CCOCC5)CC[C@]4(C)[C@H]3CC(=O)[C@]12C` (stereo partly drawn) [Compound 10, Methyl 3-hydroxy-3-(morpholinomethyl)-12-oxo-5β-cholan-24-oate]: the IC50 was more than 50 µM in the series on RAW264.7 macrophages; more than 50 µM in [12]; 8.4 ± 0.5 µM in the series with KB-3-1 cells [2]; more than 50 µM with A549 cells [3]; more than 10 µM in series [6]; 7.5 ± 1.2 µM with HepG2 cells [7]. Besides, the IC50 with HuTu-80 cells [10] stood at 10 ± 0.3 µM. In the series with RAW264.7 macrophages, the “Selectivity index RAW264” value stood at 1. In addition, the “Selectivity index KB-3-1” value in the series with KB-3-1 cells [2] was found to be 5.9. The “Selectivity index A549” value in the series on A549 cells [3] was 1. The “Selectivity index HepG-2” value with HepG2 cells [7] is on record as 6.6. Besides, the “solubility in cell culture medium” value in series [14] is reported as “poorly soluble”. For the same compound, the “Selectivity index HuTu-80” value in the series with HuTu-80 cells [10] turned out to be 5.
